Data published in patent publication US20130337564A1, “Treatment of Pluripotent Cells” (Janssen Biotech, Inc., priority 2012, published 2013).
Values joined by “and” are separate entries in the source; they are usually repeats but may differ in a detail not shown here. Identical values can stand only once.

Legend:
Assay type in all cases: cell-based
[1] = tested on: Sox17 expression in human embryonic stem cells (H9 line); assay: High content screening assay: Sox17 protein expression (differentiation); conditions: for fold induction at 10 µM: Homo sapiens, Embryonic stem cell, 10 μM test compound with 100 ng/ml activin A on days 1-2, H9, total intensity by IN Cell Analyzer, strong and moderate hits, read-out: SOX17 Expression, Fold over Wnt 3a/AA control
In short: (§1)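 H9 hESCs on MATRIGEL treated days 1-2 with 10 μM compound in DMEM:F12, 0.5% FCS, 100 ng/ml activin A; days 3-4 with 2% FCS plus activin A without compound. Fixed cells immunostained for Sox17 or HNF-3beta with Draq5 nuclear counterstain. Cell number and staining intensity quantified by high-content imaging, 12 fields/well.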

[2] = tested on: human embryonic stem cells (H9 or H1 lines); assay: Plate reader (MTS) proliferation assay; conditions: for activity at 10 µM: Homo sapiens, Embryonic stem cell, 96 h; for activity at 10 µM / % Control Value (proliferation): 10 μM test compound with 100 ng/ml activin A on days 1-2, MTS OD490 on day 4, vs Activin A/Wnt3a positive control, strong and moderate hits; for Average (of Raw Data): plate reader raw signal, mean of replicate wells, proliferation of human embryonic stem cells; for Average: average of replicate raw data; for Raw Data: replicate wells, plate reader proliferation screen of GSK-3B inhibitors
Protocol: Maintenance of human embryonic stem cells (H9 or H1 lines) was conducted as described in Example 1. Colonies of cells were maintained in an undifferentiated, pluripotent state with passage on average every four days. Passage was performed by exposing cell cultures to a solution of collagenase (1 mg/ml; Sigma-Aldrich) for 10 to 30 minutes at 37° C. followed by gentle scraping with a pipette tip to recover cell clusters. Clusters were allowed to sediment and washed to remove residual collagenase. Cell clusters were split at a ratio of 1:3 monolayer area for routine culture or a 1:1 ratio for immediate assay. The human embryonis stem cell lines used for these examples were maintained at passage numbers less than 50 and routinely evaluated for normal karyotypic phenotype as well as absence of mycoplasm contamination.
Cell clusters used in assay were evenly resuspended in normal culture medium and plated into MATRIGEL-coated 96-well Packard VIEWPLATES (PerkinElmer) in volumes of 100 μl/well. MEF conditioned medium supplemented with 8 ng/ml bFGF) was used for initial plating and recovery. Daily feeding was conducted by aspirating spent culture medium from each well and replacing with an equal volume of fresh medium. Plates were maintained at 37° C. in a humidified box, 5% CO2 throughout the duration of assay.
Primary screening assays were initiated by aspirating culture medium from each well followed by three washes in PBS to remove residual growth factors and serum. Test volumes of 80-100 μl per well were added back containing DMEM:F12 base medium (Invitrogen) supplemented with 0.5% FCS (HyClone) and 100 ng/ml activin A (R&D Biosystems) and 10 μM test compound. Positive control wells contained the same medium substituting 10-20 ng/ml Wnt3a (R&D Biosystems). Negative control wells contained base medium with 0.5% FCS without activin A or Wnt3a. Screening compounds were tested in triplicate. Wells were aspirated and fed again with identical solutions on day 2 of the assay. On days 3 and 4, all assay wells were aspirated and converted to DMEM:F 12 supplemented with 2% FCS and 100 ng/ml activin A with the exception of negative control wells which were maintained in DMEM:F12 base medium with 2% FCS.
On day 4 of assay, 15-20 μl of MTS (Promega) was added to each well and plates were incubated at 37° C. for 1.5 to 4 hours. Densitometric readings at OD490 were determined using a Molecular Devices spectrophotometer plate reader. Average readings for replicate sets were calculated along with standard deviation and coefficient of variation. Experimental wells were compared to the Activin A/Wnt3a positive control to calculate a percent control value as a measure of proliferation.
Strong hits are defined as greater than or equal to 120% of control values; moderate hits are defined as falling within the interval of 60-120% of control values. A significant number of compounds induce a proliferative response in this assay.

[3] = tested on: HNF-3beta expression in human embryonic stem cells (H9 line); assay: High content screening assay: HNF-3beta protein expression (differentiation); conditions: for fold induction at 10 µM: Homo sapiens, Embryonic stem cell, 10 μM test compound with 100 ng/ml activin A on days 1-2, H9, total intensity by IN Cell Analyzer, strong and moderate hits, read-out: HNF3β Expression, Fold over Wnt 3a/AA control
In short: as §1

[4] = tested on: human embryonic stem cells (H9 line); assay: High content screening assay: cell number (proliferative response)
In short: as §1

[5] = cell number in the wells analysed for HNF-3b expression
[6] = cell number in the wells analysed for SOX-17 expression

Compound	Average (of Raw Data) [2]	SOX-17 Expression Total Intensity [1]	Proliferative Response Total cells [4, 5]	Proliferative Response Total cells [4, 6]	HNF-3b Expression Total Intensity [3]	Average [2]	% Control Value (proliferation) [2]	Raw Data [2]	also measured
O=C1NC(=O)C(c2cn(CCCO)c3ncccc23)=C1c1ccccc1C(F)(F)F [Compound 16, 3-[1-(3-Hydroxypropyl)-1H-pyrrolo[2,3-b]pyridin-3-yl]-4-[2-(trifluoromethyl)phenyl]-1H-pyrrole-2,5-dione]	0.8575								fold induction at 10 µM [1]: 0.648; activity at 10 µM [2]: 85.5%; fold induction at 10 µM [3]: 1.1
O=C1NC(=O)C(c2cn(CCCO)c3ncccc23)=C1c1cccs1 [Compound 17, 3-[1-(3-Hydroxypropyl)-1H-pyrrolo[2,3-b]pyridin-3-yl]-4-thiophen-2-yl-1H-pyrrole-2,5-dione]	0.4114	14786632	83	158	14201404				
O=C1NC(=O)C(c2cn(CCCO)c3ncccc23)=C1c1cc(Cl)sc1Cl [Compound 18, 3-(2,5-Dichlorothiophen-3-yl)-4-[1-(3-hydroxypropyl)-1H-pyrrolo[2,3-b]pyridin-3-yl]-1H-pyrrole-2,5-dione]	0.1442	0	4	3	28439				
COCCCn1cc(C2=C(c3ccccc3O)C(=O)NC2=O)c2cccnc21 [Compound 22, 3-(2-Hydroxyphenyl)-4-{1-[3-(methyloxy)propyl]-1H-pyrrolo[2,3-b]pyridin-3-yl}-1H-pyrrole-2,5-dione]	0.3385	2188847	69	33	13689421				
COc1ccccc1C1=C(c2cn(-c3ccc4ccccc4c3)c3ncccc23)C(=O)NC1=O [Compound 23, 3-[2-(Methyloxy)phenyl]-4-(1-naphthalen-2-yl-1H-pyrrolo[2,3-b]pyridin-3-yl)-1H-pyrrole-2,5-dione]	0.4714	7121122	399	88	65100086				
COc1ccccc1C1=C(c2cn(CCCNC(=O)OC(C)(C)C)c3ncccc23)C(=O)NC1=O [Compound 26, 1,1-Dimethylethyl [3-(3-{4-[2-(methyloxy)phenyl]-2,5-dioxo-2,5-dihydro-1H-pyrrol-3-yl}-1H-pyrrolo[2,3-b]pyridin-1-yl)propyl]carbamate]	0.3611	15714170	136	109	15725984				
COc1ccccc1C1=C(c2cn(CCCNC(C)=O)c3ncccc23)C(=O)NC1=O [Compound 27, N-[3-(3-{4-[2-(Methyloxy)phenyl]-2,5-dioxo-2,5-dihydro-1H-pyrrol-3-yl}-1H-pyrrolo[2,3-b]pyridin-1-yl)propyl]acetamide]	0.1152	125443	5	5	0				
O=C1NC(=O)C(c2cn(CCCO)c3ncccc23)=C1c1cnccn1 [Compound 47, 3-[1-(3-Hydroxypropyl)-1H-pyrrolo[2,3-b]pyridin-3-yl]-4-pyrazin-2-yl-1H-pyrrole-2,5-dione]		382680000	6908	10447	560475000				fold induction at 10 µM [1]: 1.02; fold induction at 10 µM ([4]; Homo sapiens, Embryonic stem cell, 10 μM test compound with 100 ng/ml activin A on days 1-2, H9, total cell number by IN Cell Analyzer, strong and moderate hits, read-out: Proliferative Response, Fold over Wnt 3a/AA control): 1.37; fold induction at 10 µM [3]: 1.22
O=C1NC(=O)C(c2nn(CCCO)c3ccccc23)=C1c1cn(-c2cccnc2)c2ccc(Cl)cc12 [Compound 52, 3-(5-Chloro-1-pyridin-3-yl-1H-indol-3-yl)-4-[1-(3-hydroxypropyl)-1H-indazol-3-yl]-1H-pyrrole-2,5-dione]						1.0617			activity at 10 µM [2]: 136%
CN(C)CCCn1c2c(c3ccccc31)C1=C(C(=O)NC1=O)N(c1cccc(Cl)c1)C2 [Compound 101, 4-(3-Chlorophenyl)-6-[3-(dimethylamino)propyl]-5,6-dihydropyrrolo[3′,4′:5,6]pyrido[3,4-b]indole-1,3(2H,4H)-dione]						1.0316			activity at 10 µM [2]: 155%
CCN1CCOCCOCCn2cc(c3ccccc32)C2=C(C(=O)NC2=O)c2cn(c3ccccc23)CC1 [Compound 103, 14-Ethyl-6,7,9,10,13,14,15,16-octahydro-12H,23H-5,26:17,22-di(metheno)dibenzo[k,q]pyrrolo[3,4-n][1,4,7,10,19]dioxatriacyclohenicosine-23,25(24H)-dione]						0.5236	68.7%	0.7125 and 0.3347	
O=C1NC(=O)C(c2cn(CCOCCOCCO)c3ccccc23)=C1c1cn(CCO)c2ccccc12 [Compound 110, 3-[1-(2-Hydroxyethyl)-1H-indol-3-yl]-4-{1-[2-({2-[(2-hydroxyethyl)oxy]ethyl}oxy)ethyl]-1H-indol-3-yl}-1H-pyrrole-2,5-dione]						1.0686			activity at 10 µM [2]: 161%
CN1CCN(C)CCn2cc(c3ccccc32)C2=C(C(=O)NC2=O)c2cn(c3ccccc23)CC1 [Compound 111, 8,11-Dimethyl-6,7,8,9,10,11,12,13-octahydro-20H-5,23:14,19-di(metheno)dibenzo[k,q]pyrrolo[3,4-n][1,4,7,10]tetraazacyclooctadecine-20,22(21H)-dione]						0.8784	128.7%	1.0689 and 0.6879	
CN1CCOCCOCCN(C)CCn2cc(c3ccccc32)C2=C(C(=O)NC2=O)c2cn(c3ccccc23)CC1 [Compound 112, 12,21-Dimethyl-11,12,13,14,16,17,20,21,22,23-decahydro-1H,10H,19H-9,4:24,29-di(metheno)dibenzo[k,q]pyrrolo[3,4-n][1,4,7,10,19,22]dioxatetraazacyclotetracosine-1,3(2H)-dione]						0.9024	132.8%	1.0444 and 0.7603	
O=C1NC(=O)C2=C1c1cn(c3ccccc13)CCOCCOCCN(Cc1cccs1)CCn1cc2c2ccccc21 [Compound 133, 14-(2-Thienylmethyl)-6,7,9,10,13,14,15,16-octahydro-12H,23H-5,26:17,22-di(metheno)dibenzo[k,q]pyrrolo[3,4-n][1,4,7,10,19]dioxatriazacyclohenicosine-23,25(24H)-dione]						1.0839	149.3%	1.0786 and 1.0891	
O=C1NC(=O)C2=C1c1cn(c3ccccc13)CCOCCOCCN(Cc1cccc3ccccc13)CCn1cc2c2ccccc21 [Compound 136, 14-(Naphthalen-1-ylmethyl)-6,7,9,10,13,14,15,16-octahydro-12H,23H-5,26:17,22-di(metheno)dibenzo[k,q]pyrrolo[3,4-n][1,4,7,10,19]dioxatriazacyclohenicosine-23,25(24H)-dione]						0.9509 and 0.9309	128.8% and 125.7%	0.8618 and 1.0400 and 0.8430 and 1.0187	
